Values of other authors in patent US7713351B2, “Method for crystallization of proteins using polysaccharides” (Macrocrystal Oy, priority 2004, dated 2010).

Details: room temperature; CRC Handbook of Chemistry and Physics

## OCC(O)CO [glycerol]
  Viscosity: 934 mPa s
